Measurements from patent US11535680B2, “Targeting metastasis stem cells through a fatty acid receptor (CD36)” (FUNDACIÓ INSTITUT DE RECERCA BIOMÈDICA (IRB BARCELONA), priority 2015, dated 2022).

Tests used:
SCC25 tumour cells = experiment: Transplants of palmitic acid-treated OSCC cells; type: in vivo, mouse; conditions: cells treated in culture before transplant
Experimental: NOD scid gamma (NSG) (NOD.Cg-Prkdc^scid Il2rg^tm1Wjl/SzJ) mice were purchased from Charles River and crossed in-house. All mice were housed under a regimen of 12 h light/12 h dark cycles and SPF conditions, and all procedures were evaluated and approved by the CEEA (Ethical Committee for Animal Experimentation) from the Government of Catalunya. For establishing patient-derived tumour cells, tumours were implanted subcutaneously into NOD scid gamma mice immediately after tumour resection from the patient. Once the tumours had grown, they were collected, disaggregated, and tumour cells were FACS sorted and cultured as described below. For 5-bromo-2-deoxyuridine (BrdU) labelling experiments, mice were injected intraperitoneally with a single dose of 100 μg g^−1 BrdU (Invitrogen) and then analysed at 24 h. SCC intra-tongue injection was performed as previously described (Oskarsson et al., 2014; Nieman et al., 2011). Briefly, mice were anesthetized by intraperitoneal injection with a mixture of 50 mg per kg of ketamine and 0.5 mg per kg of medetomidin, and SCC cells resuspended in 30 μl PBS were injected into each mouse tongue with a BD ultra-fine 6 mm needle. For intravenous cell injection, mice were anesthetized with continuous administration of isofluorane gas and were injected by retro-orbital injection with 100,000 cells in 100 μl PBS. Mice were monitored for the luciferase bioluminescent signal immediately after injection (T0) and once weekly thereafter with a Xenogen IVIS Imaging System-100 (Caliper Life Sciences). Briefly, animals were injected by retro-orbital injection with 50 μl of D-luciferin (Promega) diluted in 1×PBS at 5 mg ml^−1. Continuous administration of isofluorane gas was provided to ensure anesthetizing animals during imaging. Data was quantified with the Living Image software version 4.4 (Caliper Life Sciences). Quantifications were calculated with unsaturated pixels. Color scale minimum and maximum values are shown in pictures.
All cells were cultured in a humidified incubator at 37° C. with 5% CO2. […]

OSCC cells = OSCC cells exposed in culture to palmitic acid, CD36+ cells by flow cytometry; type: cell-based, human; conditions: 2 days, 0.4 mM palmitic acid
Experimental: All cells were cultured in a humidified incubator at 37° C. with 5% CO2. SCC-25 (ATCC^R CRL-168™) and patient-derived cells (VDH-00, VDH-01 and VDH-02) were grown in keratinocyte serum-free media (KSFM, GIBCO) supplemented with 5 μg ml^−1 penicillin/streptomycin, 0.025 mg ml^−1 bovine pituitary extract and 0.2 μg ml^−1 of hEGF. JHU-029 cells (The Johns Hopkins University) were grown in RPMI (GIBCO) supplemented with 5 μg ml^−1 penicillin/streptomycin and 10% foetal bovine serum (FBS; GIBCO). FaDu (ATCC^R HTB-43™) and Detroit (ATCC^R CCL138™) cells were grown in EMEM (LONZA) supplemented with 5 μg ml^−1 penicillin/streptomycin and 10% FBS (GIBCO). MCF-7 cells (ATCC^r HTB-22™) were grown in EMEM (LONZA) supplemented with 5 mg ml^−1 penicillin/streptomycin, 0.01 mg ml^−1 human recombinant insulin and 10% FBS (GIBCO). The 501mel human cell line (kindly provided by Dr. Claudia Wellbrock, Manchester Cancer Research Centre, The University of Manchester, UK) was grown in DMEM supplemented with 5 mg ml^−1 penicillin/streptomycin and 10% FBS (GIBCO). HNACFS (Head and Neck tumour associated fibroblasts) were grown in DMEM supplemented with 5 mg ml^−1 penicillin/streptomycin, 10% FBS (GIBCO) and 1× insulin transferrin selenium G supplement (Invitrogen). OP9 cells were cultured and differentiated to adipocytes as previously described (Wolins et al., 2006). […]

OSCC cell lines = experiment: shRNA-mediated CD36 depletion in orthotopic OSCC xenografts; type: in vivo, mouse; conditions: FaDu cells
Experimental: NOD scid gamma (NSG) (NOD.Cg-Prkdc^scid Il2rg^tm1Wjl/SzJ) mice were purchased from Charles River and crossed in-house. All mice were housed under a regimen of 12 h light/12 h dark cycles and SPF conditions, and all procedures were evaluated and approved by the CEEA (Ethical Committee for Animal Experimentation) from the Government of Catalunya. For establishing patient-derived tumour cells, tumours were implanted subcutaneously into NOD scid gamma mice immediately after tumour resection from the patient. Once the tumours had grown, they were collected, disaggregated, and tumour cells were FACS sorted and cultured as described below. For 5-bromo-2-deoxyuridine (BrdU) labelling experiments, mice were injected intraperitoneally with a single dose of 100 μg g^−1 BrdU (Invitrogen) and then analysed at 24 h. SCC intra-tongue injection was performed as previously described (Oskarsson et al., 2014; Nieman et al., 2011). […] Mice were monitored for the luciferase bioluminescent signal immediately after injection (T0) and once weekly thereafter with a Xenogen IVIS Imaging System-100 (Caliper Life Sciences). […] Data was quantified with the Living Image software version 4.4 (Caliper Life Sciences). Quantifications were calculated with unsaturated pixels. […]

Compound	inoculated mice with lung metastasis (SCC25 tumour cells)	primary tumour growth (SCC25 tumour cells)	size and frequency of the LN metastasis (SCC25 tumour cells)	percentage of CD36+ cells in culture (OSCC cells)	lung metastasis (ability to colonize the lungs) (OSCC cell lines)
CCCCCCCCCCCCCCCC(=O)O [PA, palmitic acid]	10%	without any effect	significantly boosted	robustly induced	
shRNACD36 #99: lentiviral shRNA targeting CD36 (Sigma Aldrich), SEQ ID NO: 2 (CCGACGTTAATCTGAAAGGA)					absent
